Each molecule was assayed against T1, PI3K α (Homo sapiens, UniProt P42336) (assay: PI3-Kinase Promega ADP-Glo Max assay). Conditions: 20 nM kinase, 3 mM ATP, 500 uM diC8-PtdInsP.
T1 construct: purchased Millipore
Format: biochemical
Outline: (§1)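 Human class I PI3K (20 nM α or δ, 40 nM β) pre-incubated 15 min with compound in HEPES pH 7.4 buffer with MgCl2, then reacted 2 h at room temperature with 3 mM ATP and 500 uM diC8-PtdInsP. ADP measured by ADP-Glo Max luminescence; % inhibition fitted to 4-parameter logistic for IC50.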

T1 sequence (P42336 whole entry): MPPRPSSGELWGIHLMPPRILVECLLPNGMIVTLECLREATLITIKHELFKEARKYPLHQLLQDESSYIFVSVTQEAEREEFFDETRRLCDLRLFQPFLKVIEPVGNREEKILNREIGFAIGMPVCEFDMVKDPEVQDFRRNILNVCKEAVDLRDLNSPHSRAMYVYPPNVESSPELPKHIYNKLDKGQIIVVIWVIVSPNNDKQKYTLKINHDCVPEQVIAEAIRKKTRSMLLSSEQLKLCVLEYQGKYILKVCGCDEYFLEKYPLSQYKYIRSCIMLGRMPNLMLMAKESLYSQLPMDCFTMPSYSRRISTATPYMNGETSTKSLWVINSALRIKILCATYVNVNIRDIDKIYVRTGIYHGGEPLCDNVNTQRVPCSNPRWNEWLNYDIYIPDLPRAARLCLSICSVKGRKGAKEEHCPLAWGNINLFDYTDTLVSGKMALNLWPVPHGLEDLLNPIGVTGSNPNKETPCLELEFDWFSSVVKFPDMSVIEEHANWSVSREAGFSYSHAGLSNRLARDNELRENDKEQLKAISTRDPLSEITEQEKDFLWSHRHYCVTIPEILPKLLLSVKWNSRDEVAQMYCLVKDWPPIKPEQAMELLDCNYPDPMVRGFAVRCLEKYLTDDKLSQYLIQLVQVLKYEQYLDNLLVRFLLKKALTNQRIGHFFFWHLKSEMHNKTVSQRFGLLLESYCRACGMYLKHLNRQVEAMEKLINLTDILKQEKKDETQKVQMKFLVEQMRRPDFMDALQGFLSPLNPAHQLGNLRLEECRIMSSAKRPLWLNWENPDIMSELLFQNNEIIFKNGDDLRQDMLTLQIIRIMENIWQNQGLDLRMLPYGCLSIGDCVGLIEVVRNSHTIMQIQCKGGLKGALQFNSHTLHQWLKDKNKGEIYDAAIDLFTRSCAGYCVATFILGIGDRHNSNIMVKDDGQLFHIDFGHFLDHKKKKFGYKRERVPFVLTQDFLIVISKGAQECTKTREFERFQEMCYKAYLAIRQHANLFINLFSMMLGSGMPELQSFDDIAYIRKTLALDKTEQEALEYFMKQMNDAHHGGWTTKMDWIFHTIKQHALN
T1 sequence (P27986 whole entry partner): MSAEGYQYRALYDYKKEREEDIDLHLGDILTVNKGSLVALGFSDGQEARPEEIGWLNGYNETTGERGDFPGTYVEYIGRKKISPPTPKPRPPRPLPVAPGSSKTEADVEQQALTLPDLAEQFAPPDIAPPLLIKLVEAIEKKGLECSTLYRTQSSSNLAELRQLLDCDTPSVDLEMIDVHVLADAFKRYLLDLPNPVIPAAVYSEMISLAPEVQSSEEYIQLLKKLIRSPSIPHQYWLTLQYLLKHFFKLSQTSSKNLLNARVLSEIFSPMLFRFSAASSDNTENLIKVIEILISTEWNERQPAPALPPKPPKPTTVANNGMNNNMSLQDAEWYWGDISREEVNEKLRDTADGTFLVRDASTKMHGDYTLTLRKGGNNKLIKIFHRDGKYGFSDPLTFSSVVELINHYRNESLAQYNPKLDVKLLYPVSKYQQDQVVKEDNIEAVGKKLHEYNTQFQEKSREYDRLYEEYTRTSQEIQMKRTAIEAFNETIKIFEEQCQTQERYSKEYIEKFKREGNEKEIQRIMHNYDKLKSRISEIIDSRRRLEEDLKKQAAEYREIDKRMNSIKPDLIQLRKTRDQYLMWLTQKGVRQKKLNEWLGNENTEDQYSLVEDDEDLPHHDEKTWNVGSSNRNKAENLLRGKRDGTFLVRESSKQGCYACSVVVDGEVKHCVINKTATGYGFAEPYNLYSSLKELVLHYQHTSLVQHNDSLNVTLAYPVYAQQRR

SMILES | IC50
C[C@H](NC(=O)c1c(N)nn2cccnc12)c1cc2cccc(C3CC3)c2c(=O)n1-c1ccccc1 [Compound 193] | > 10 µM
C=CCn1c([C@H](C)NC(=O)c2c(N)nn3cccnc23)cc2cccc(Cl)c2c1=O [Compound 235] | 1 to 10 µM
CC(C)Oc1ccc(-c2cnc(N)c(C(=O)N[C@@H](C)c3cc4cccc(Cl)c4c(=O)n3-c3ccccc3)n2)cc1F [Compound 87] | 1 to 10 µM

Now from value to molecule:

IC50 | SMILES
1 to 10 µM | CNc1cccc2cc([C@H](C)NC(=O)c3c(N)nn4cccnc34)n(-c3ccccc3)c(=O)c12 [Compound 266]
1 to 10 µM | C[C@H](NC(=O)c1c(N)nn2cccnc12)c1cc2cccc(C#CCNC(=O)C3CC(=O)CC(=O)C3)c2c(=O)n1-c1ccccc1 [Compound 156]
1 to 10 µM | CC[C@H](NC(=O)c1c(N)nn2cccnc12)c1cc2cccc(Cl)c2c(=O)n1-c1ccccc1 [Compound 250]
1 to 10 µM | C[C@H](NC(=O)c1nc(-c2cccc(S(=O)(=O)NC(C)(C)C)c2)cnc1N)c1cc2cccc(Cl)c2c(=O)n1-c1ccccc1 [Compound 86]
0.1 to 1 µM | COc1cc(-c2cccc3nc([C@H](C)NC(=O)c4c(N)nn5cccnc45)n(-c4ccccc4)c(=O)c23)ccn1 [Compound 144]

The molecules below were run against T2, PI3K β (Homo sapiens, UniProt P42338) (assay: PI3-Kinase Promega ADP-Glo Max assay). Conditions: 40 nM kinase, 3 mM ATP, 500 uM diC8-PtdInsP.
T2 construct: purchased Millipore
Format: biochemical
Outline: as §1

T2 sequence (P42338 whole entry): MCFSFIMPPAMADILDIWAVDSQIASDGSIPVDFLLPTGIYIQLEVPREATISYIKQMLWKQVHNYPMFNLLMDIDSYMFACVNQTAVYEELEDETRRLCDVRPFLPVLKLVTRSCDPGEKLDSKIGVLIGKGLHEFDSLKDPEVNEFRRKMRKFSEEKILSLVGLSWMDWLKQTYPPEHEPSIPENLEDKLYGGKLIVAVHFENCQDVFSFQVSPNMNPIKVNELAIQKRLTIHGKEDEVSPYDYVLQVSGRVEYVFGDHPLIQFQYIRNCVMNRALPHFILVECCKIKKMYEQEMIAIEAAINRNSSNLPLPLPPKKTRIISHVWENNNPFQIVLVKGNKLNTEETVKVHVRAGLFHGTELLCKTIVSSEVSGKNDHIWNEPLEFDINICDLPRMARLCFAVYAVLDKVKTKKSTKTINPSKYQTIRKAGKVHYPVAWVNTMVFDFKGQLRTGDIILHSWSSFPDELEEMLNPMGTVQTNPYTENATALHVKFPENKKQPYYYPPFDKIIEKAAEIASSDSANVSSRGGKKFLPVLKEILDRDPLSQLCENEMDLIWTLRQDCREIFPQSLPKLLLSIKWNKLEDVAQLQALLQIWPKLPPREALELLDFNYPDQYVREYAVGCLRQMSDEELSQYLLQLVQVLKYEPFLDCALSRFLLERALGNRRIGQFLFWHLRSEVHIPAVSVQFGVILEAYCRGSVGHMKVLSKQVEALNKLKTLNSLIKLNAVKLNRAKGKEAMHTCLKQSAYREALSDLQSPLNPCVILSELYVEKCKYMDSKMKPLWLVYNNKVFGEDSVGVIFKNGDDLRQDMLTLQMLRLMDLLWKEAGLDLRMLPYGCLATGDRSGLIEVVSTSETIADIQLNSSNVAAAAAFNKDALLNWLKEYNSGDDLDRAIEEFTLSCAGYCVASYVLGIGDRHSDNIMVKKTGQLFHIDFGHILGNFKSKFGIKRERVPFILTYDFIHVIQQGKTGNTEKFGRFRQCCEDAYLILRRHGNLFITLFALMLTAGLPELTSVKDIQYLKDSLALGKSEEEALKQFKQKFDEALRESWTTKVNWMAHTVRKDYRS
T2 sequence (P27986 whole entry partner): as the sequence (P27986 whole entry partner) above

SMILES | IC50
C[C@H](NC(=O)c1c(N)nn2cccnc12)c1cc2cccc(C3CC3)c2c(=O)n1-c1ccccc1 [Compound 193] | > 10 µM
C=CCn1c([C@H](C)NC(=O)c2c(N)nn3cccnc23)cc2cccc(Cl)c2c1=O [Compound 235] | < 0.1 µM
CC(C)Oc1ccc(-c2cnc(N)c(C(=O)N[C@@H](C)c3cc4cccc(Cl)c4c(=O)n3-c3ccccc3)n2)cc1F [Compound 87] | > 10 µM

Further lines, results first:

IC50 | SMILES
> 10 µM | CNc1cccc2cc([C@H](C)NC(=O)c3c(N)nn4cccnc34)n(-c3ccccc3)c(=O)c12 [Compound 266]
1 to 10 µM | C[C@H](NC(=O)c1c(N)nn2cccnc12)c1cc2cccc(C#CCNC(=O)C3CC(=O)CC(=O)C3)c2c(=O)n1-c1ccccc1 [Compound 156]
< 0.1 µM | CC[C@H](NC(=O)c1c(N)nn2cccnc12)c1cc2cccc(Cl)c2c(=O)n1-c1ccccc1 [Compound 250]
1 to 10 µM | C[C@H](NC(=O)c1nc(-c2cccc(S(=O)(=O)NC(C)(C)C)c2)cnc1N)c1cc2cccc(Cl)c2c(=O)n1-c1ccccc1 [Compound 86]
1 to 10 µM | COc1cc(-c2cccc3nc([C@H](C)NC(=O)c4c(N)nn5cccnc45)n(-c4ccccc4)c(=O)c23)ccn1 [Compound 144]

What follows are molecules tested against T3, PI3K δ (Homo sapiens, UniProt O00329) (assay: PI3-Kinase Promega ADP-Glo Max assay). Conditions: 20 nM kinase, 3 mM ATP, 500 uM diC8-PtdInsP.
T3 construct: purchased Millipore
Format: biochemical
Outline: as §1

T3 sequence (O00329 whole entry): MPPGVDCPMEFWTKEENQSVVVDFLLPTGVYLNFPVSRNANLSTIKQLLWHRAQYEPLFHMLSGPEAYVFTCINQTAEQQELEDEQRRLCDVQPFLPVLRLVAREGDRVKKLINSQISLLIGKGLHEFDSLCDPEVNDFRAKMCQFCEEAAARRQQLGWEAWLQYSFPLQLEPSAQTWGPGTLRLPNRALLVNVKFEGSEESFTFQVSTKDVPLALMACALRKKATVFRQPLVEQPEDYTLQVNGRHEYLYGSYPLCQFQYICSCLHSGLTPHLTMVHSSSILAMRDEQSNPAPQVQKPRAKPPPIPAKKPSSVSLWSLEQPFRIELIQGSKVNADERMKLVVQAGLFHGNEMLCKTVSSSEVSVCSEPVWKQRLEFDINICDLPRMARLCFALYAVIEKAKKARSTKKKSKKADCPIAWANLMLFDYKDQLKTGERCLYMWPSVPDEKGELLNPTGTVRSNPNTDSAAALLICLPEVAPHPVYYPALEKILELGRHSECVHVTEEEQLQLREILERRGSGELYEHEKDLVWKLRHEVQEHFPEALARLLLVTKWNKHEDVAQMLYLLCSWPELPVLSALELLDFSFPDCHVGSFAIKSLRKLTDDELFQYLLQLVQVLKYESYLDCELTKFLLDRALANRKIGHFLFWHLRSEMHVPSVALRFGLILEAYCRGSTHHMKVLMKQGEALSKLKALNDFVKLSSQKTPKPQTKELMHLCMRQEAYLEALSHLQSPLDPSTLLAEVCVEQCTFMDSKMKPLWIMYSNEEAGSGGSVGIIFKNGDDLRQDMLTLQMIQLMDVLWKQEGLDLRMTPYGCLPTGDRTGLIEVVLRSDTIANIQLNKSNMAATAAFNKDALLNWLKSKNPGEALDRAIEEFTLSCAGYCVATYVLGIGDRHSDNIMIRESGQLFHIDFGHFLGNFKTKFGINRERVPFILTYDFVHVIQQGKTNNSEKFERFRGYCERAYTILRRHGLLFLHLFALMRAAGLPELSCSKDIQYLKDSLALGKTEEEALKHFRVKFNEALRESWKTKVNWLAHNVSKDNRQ
T3 sequence (P27986 whole entry partner): as the sequence (P27986 whole entry partner) above

SMILES | IC50
C[C@H](NC(=O)c1c(N)nn2cccnc12)c1cc2cccc(C3CC3)c2c(=O)n1-c1ccccc1 [Compound 193] | 1 to 10 µM
C=CCn1c([C@H](C)NC(=O)c2c(N)nn3cccnc23)cc2cccc(Cl)c2c1=O [Compound 235] | 0.1 to 1 µM
CC(C)Oc1ccc(-c2cnc(N)c(C(=O)N[C@@H](C)c3cc4cccc(Cl)c4c(=O)n3-c3ccccc3)n2)cc1F [Compound 87] | 1 to 10 µM

Now from value to molecule:

IC50 | SMILES
> 10 µM | CNc1cccc2cc([C@H](C)NC(=O)c3c(N)nn4cccnc34)n(-c3ccccc3)c(=O)c12 [Compound 266]
0.1 to 1 µM | C[C@H](NC(=O)c1c(N)nn2cccnc12)c1cc2cccc(C#CCNC(=O)C3CC(=O)CC(=O)C3)c2c(=O)n1-c1ccccc1 [Compound 156]
< 0.1 µM | CC[C@H](NC(=O)c1c(N)nn2cccnc12)c1cc2cccc(Cl)c2c(=O)n1-c1ccccc1 [Compound 250]
1 to 10 µM | C[C@H](NC(=O)c1nc(-c2cccc(S(=O)(=O)NC(C)(C)C)c2)cnc1N)c1cc2cccc(Cl)c2c(=O)n1-c1ccccc1 [Compound 86]
0.1 to 1 µM | COc1cc(-c2cccc3nc([C@H](C)NC(=O)c4c(N)nn5cccnc45)n(-c4ccccc4)c(=O)c23)ccn1 [Compound 144]

The molecules below were run against T4, PI3K γ (Homo sapiens, UniProt P48736) (assay: PI3-Kinase Promega ADP-Glo Max assay). Conditions: 40 nM kinase, 3 mM ATP, 500 uM diC8-PtdInsP.
T4 construct: purchased Millipore
Format: biochemical
Outline: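 Human class I PI3K reactions ran 2 hours at room temperature, followed by stop solution (40 min) and detection mix (1 hour) before luminescence reading.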

SMILES | IC50
C[C@H](NC(=O)c1c(N)nn2cccnc12)c1cc2cccc(C3CC3)c2c(=O)n1-c1ccccc1 [Compound 193] | 1 to 10 µM
C=CCn1c([C@H](C)NC(=O)c2c(N)nn3cccnc23)cc2cccc(Cl)c2c1=O [Compound 235] | 0.1 to 1 µM
CC(C)Oc1ccc(-c2cnc(N)c(C(=O)N[C@@H](C)c3cc4cccc(Cl)c4c(=O)n3-c3ccccc3)n2)cc1F [Compound 87] | 0.1 to 1 µM

The next lines start with the values.

IC50 | SMILES
1 to 10 µM | CNc1cccc2cc([C@H](C)NC(=O)c3c(N)nn4cccnc34)n(-c3ccccc3)c(=O)c12 [Compound 266]
< 0.1 µM | C[C@H](NC(=O)c1c(N)nn2cccnc12)c1cc2cccc(C#CCNC(=O)C3CC(=O)CC(=O)C3)c2c(=O)n1-c1ccccc1 [Compound 156]
0.1 to 1 µM | CC[C@H](NC(=O)c1c(N)nn2cccnc12)c1cc2cccc(Cl)c2c(=O)n1-c1ccccc1 [Compound 250]
0.1 to 1 µM | C[C@H](NC(=O)c1nc(-c2cccc(S(=O)(=O)NC(C)(C)C)c2)cnc1N)c1cc2cccc(Cl)c2c(=O)n1-c1ccccc1 [Compound 86]
< 0.1 µM | COc1cc(-c2cccc3nc([C@H](C)NC(=O)c4c(N)nn5cccnc45)n(-c4ccccc4)c(=O)c23)ccn1 [Compound 144]

What follows are molecules tested against T5, Raw264.7 p110 γ (Mus musculus, UniProt Q9JHG7) (assay: Raw264.7 p110 γ cellular assay (phospho-AKT)). Conditions: serum-starved RAW264.7 cells stimulated with C5a.
T5 construct: reduction of phospho-AKT in stimulated RAW 264.7 cells; endogenous in cells; host or cells: RAW264.7 macrophages
Format: cell-based
Source text: (b) PI3K-γ Selective Assay
Briefly, serum-starved PAW264.7 cells are stimulated with a known GPCR agonist C5a. […] Cells can be treated with test compounds prior to, simultaneously with, or subsequent to the stimulation by C5a. RAW 264.7 cells respond to the complement component fragment C5a through activation of the C5a receptor, and the C5a receptor activates macrophages and induces cell migration.

SMILES | IC50
C[C@H](NC(=O)c1c(N)nn2cccnc12)c1cc2cccc(C3CC3)c2c(=O)n1-c1ccccc1 [Compound 193] | < 0.1 µM
C=CCn1c([C@H](C)NC(=O)c2c(N)nn3cccnc23)cc2cccc(Cl)c2c1=O [Compound 235] | < 0.1 µM
CC(C)Oc1ccc(-c2cnc(N)c(C(=O)N[C@@H](C)c3cc4cccc(Cl)c4c(=O)n3-c3ccccc3)n2)cc1F [Compound 87] | 0.1 to 1 µM

Continued, values first:

IC50 | SMILES
< 0.1 µM | CNc1cccc2cc([C@H](C)NC(=O)c3c(N)nn4cccnc34)n(-c3ccccc3)c(=O)c12 [Compound 266]
0.1 to 1 µM | C[C@H](NC(=O)c1c(N)nn2cccnc12)c1cc2cccc(C#CCNC(=O)C3CC(=O)CC(=O)C3)c2c(=O)n1-c1ccccc1 [Compound 156]
< 0.1 µM | CC[C@H](NC(=O)c1c(N)nn2cccnc12)c1cc2cccc(Cl)c2c(=O)n1-c1ccccc1 [Compound 250]
< 0.1 µM | C[C@H](NC(=O)c1nc(-c2cccc(S(=O)(=O)NC(C)(C)C)c2)cnc1N)c1cc2cccc(Cl)c2c(=O)n1-c1ccccc1 [Compound 86]
< 0.1 µM | COc1cc(-c2cccc3nc([C@H](C)NC(=O)c4c(N)nn5cccnc45)n(-c4ccccc4)c(=O)c23)ccn1 [Compound 144]

These molecules were tested against RAJI p110 δ (Homo sapiens, UniProt O00329) (assay: RAJI p110 δ cellular assay (phospho-AKT)). Conditions: not given.
Chain of RAJI p110 δ (O00329 whole entry): as the sequence (O00329 whole entry) above
Chain of RAJI p110 δ (P27986 whole entry partner): as the sequence (P27986 whole entry partner) above

SMILES | IC50
C[C@H](NC(=O)c1c(N)nn2cccnc12)c1cc2cccc(C3CC3)c2c(=O)n1-c1ccccc1 [Compound 193] | 0.1 to 1 µM
C=CCn1c([C@H](C)NC(=O)c2c(N)nn3cccnc23)cc2cccc(Cl)c2c1=O [Compound 235] | < 0.1 µM
CC(C)Oc1ccc(-c2cnc(N)c(C(=O)N[C@@H](C)c3cc4cccc(Cl)c4c(=O)n3-c3ccccc3)n2)cc1F [Compound 87] | 1 to 10 µM

Now from value to molecule:

IC50 | SMILES
0.1 to 1 µM | CNc1cccc2cc([C@H](C)NC(=O)c3c(N)nn4cccnc34)n(-c3ccccc3)c(=O)c12 [Compound 266]
1 to 10 µM | C[C@H](NC(=O)c1c(N)nn2cccnc12)c1cc2cccc(C#CCNC(=O)C3CC(=O)CC(=O)C3)c2c(=O)n1-c1ccccc1 [Compound 156]
< 0.1 µM | CC[C@H](NC(=O)c1c(N)nn2cccnc12)c1cc2cccc(Cl)c2c(=O)n1-c1ccccc1 [Compound 250]
< 0.1 µM | C[C@H](NC(=O)c1nc(-c2cccc(S(=O)(=O)NC(C)(C)C)c2)cnc1N)c1cc2cccc(Cl)c2c(=O)n1-c1ccccc1 [Compound 86]
< 0.1 µM | COc1cc(-c2cccc3nc([C@H](C)NC(=O)c4c(N)nn5cccnc45)n(-c4ccccc4)c(=O)c23)ccn1 [Compound 144]
